Results as given in article PMC2670245 (Bioorganic & medicinal chemistry, 2008).
Entries after “also recorded” stand apart in the source; their conditions may differ.

What was measured:
[1] = biological target: 5-HT3; details: read-out: Ki 5-HT3; cited from earlier work
[2] = biological target: 5-HT4; details: read-out: Ki 5-HT4; cited from earlier work
[3] = tested on: MDA-MB435 cells; experiment: colony formation; format: cell-based, human
[4] = tested on: EMT-6 cells; experiment: colony formation; format: cell-based, mouse
[5] = tested on: Panc-02; details: cited from earlier work
[6] = biological target: T1, σ2 receptor (Rattus norvegicus, UniProt Q5U3Y7); experiment: σ2 receptor competitive binding with [^3H]RHM-1; details: Ki of σ1/σ2 ratio
T1 sequence (Q5U3Y7 1-176): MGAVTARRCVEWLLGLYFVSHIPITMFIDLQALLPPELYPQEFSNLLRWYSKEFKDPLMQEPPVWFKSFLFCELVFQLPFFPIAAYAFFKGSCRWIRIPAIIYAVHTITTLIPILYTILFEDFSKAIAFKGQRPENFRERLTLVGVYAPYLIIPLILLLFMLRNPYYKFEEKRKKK

## COc1ccc(C)cc1NC(=O)OC1CC2CCCC(C1)N2Cc1ccccc1 (centres unmarked) [Compound 6, 9-Benzyl-9-azabicyclo[3.3.1]nonan-3-yl-2-methoxy-5-methylphenylcarbamate]
[1]
  Ki: > 1 µM
[2]
  Ki: > 1 µM

## COc1cccc2c1C(=O)c1c(O)c3c(c(O)c1C2=O)C[C@@](O)(C(=O)CO)C[C@@H]3O[C@H]1C[C@H](N)[C@H](O)[C@H](C)O1 [DOX, doxorubicin, reference compound]
[3]; MDA-MB435, DOX <20 μM, 24 h
  tumor cell kill as single agent: no tumor cell kill
[4]; EMT-6, DOX <20 μM, 24 h
  tumor cell kill as single agent: no tumor cell kill

## COc1ccc(C)cc1NC(=O)OC1CC2CCCC(C1)N2Cc1ccc(N(C)C)cc1 (centres unmarked) [WC-26, 9-(4-(Dimethylamino)benzyl)-9-azabicyclo[3.3.1]nonan-3-yl-2-methoxy-5-methyl-phenylcarbamate]
[5]; flow cytometry
  apoptosis in treated tumors: dose-dependent increases in apoptosis
[5]; treated mice
  systemic toxicity: no evidence of systemic toxicity
[3]; MDA-MB435, 2 μM WC-26 16 h, then range of DOX concentrations added for 24 h
  clonogenic survival, combination with DOX compared to DOX alone: large decrease in clonogenic survival
[3]; MDA-MB435, 2 μM WC-26 alone, 40 h
  cell kill as single agent: no measureable cell kill; also recorded: no tumor cell kill
[4]; EMT-6, 2 μM WC-26 16 h, then range of DOX concentrations added for 24 h
  clonogenic survival, combination with DOX compared to DOX alone: large decrease in clonogenic survival
[4]; EMT-6, 2 μM WC-26 alone, 40 h
  cell kill as single agent: no measureable cell kill; also recorded: no tumor cell kill

## COc1ccc(C)cc1NC(=O)OC1CC2CCCC(C1)N2Cc1ccc(CCF)cc1 (centres unmarked) [WC-59, 9-(4-(2-Fluoroethyl)benzyl)-9-azabicyclo[3.3.1]nonan-3-yl-2-methoxy-5-methyl-phenylcarbamate]
[6]
  σ1/σ2 (Ki ratio): 2,087
